These results are taken from the NIST ThermoML archive (doi:10.1016/j.fluid.2006.09.017).

Molecules are shown by their SMILES. Numbers after ± are expanded uncertainties.

The conditions of this data set: Liquid.

`FCC(F)(F)F` [1,1,1,2-tetrafluoroethane]: the “vapor or sublimation pressure” value (258.15 K) was 163.9 ± 5.9 kPa; the “vapor or sublimation pressure” value (263.15 K) turned out to be 200.6 ± 6.8 kPa; the “vapor or sublimation pressure” value (268.15 K) stood at 243.3 ± 7.9 kPa; the “vapor or sublimation pressure” value (275.15 K) is 314.6 ± 10 kPa; the “vapor or sublimation pressure” value (283.15 K) is 414.6 ± 13 kPa; the “vapor or sublimation pressure” value (293.15 K) is recorded as 571.7 ± 18 kPa. For the same compound, the “vapor or sublimation pressure” value is 770.2 ± 24 kPa (303.15 K); 1017 ± 32 kPa (313.15 K); 1318 ± 41 kPa (323.15 K); 1682 ± 52 kPa (333.15 K); 2117 ± 66 kPa (343.15 K).
`FCF` [difluoromethane]: the “vapor or sublimation pressure” value by setting is: (258.15 K) 488.1 ± 15 kPa; (268.15 K) 690.6 ± 22 kPa; (275.15 K) 866.5 ± 27 kPa; (283.15 K) 1107 ± 35 kPa; (293.15 K) 1475 ± 46 kPa; (303.15 K) 1928 ± 60 kPa. For the same compound, the “vapor or sublimation pressure” value came out at 2478 ± 77 kPa (313.15 K), 3141 ± 98 kPa (323.15 K), 3933 ± 120 kPa (333.15 K) and 4877 ± 150 kPa (343.15 K).
